Experimental data reported in patent US6340677B1, “Method of evaluation of skin conditioning-ameliorating agents and method of producing compositions for topical application to skin” (Pola Chemical Industries, Inc., priority 1997, dated 2002).

Tested on: mouse photo-aging model
Experiment: degree of order of dermis collagen fiber bundle in the mouse photo-aging model (score 0 to 3 from electron microphotographs)
Type: in vivo, hairless mice (Skh: HR-1)
Details: 0.05% solution in ethanol
Procedure: Five groups of hairless mice (Skh: HR-1,female, 8-week-old), each group comprising six mice, were prepared. A part of skin and replica of skin surface morphology were excised from each mouse of one group of them when they were 8 weeks old without the following ultraviolet light irradiation, namely in-the state of before the ultraviolet light irradiation. About the remaining four groups, each mouse was irradiated with ultraviolet light B (Toshiba SE lamp, 60 mJ/cm^2) once per day for 5 days a week and fed up. The irradiation of the ultraviolet light to one group among the four groups described-above was stopped after one week of the initiation of the irradiation and at this time a part of skin and replica of skin surface morphology were excised from each mouse of the group. As the same manner, the irradiation of the ultraviolet light to the another group and to the further another group were stopped after two and five weeks of the initiation of the irradiation and then a part of skin and replica of skin surface morphology were excised from each mouse of the groups respectively. The irradiation of the ultraviolet light to the last group was continued to 10 weeks after initiation of the irradiation to prepare the mouse photo-aging models. Thus the total amount of the ultraviolet light irradiated to the mouse photo-aging models was 3J/cm^2. A part of skin and replica of skin surface morphology were also excised from each mouse photo-aging model obtained above. […] Each of the solution was given in an amount of 0.05 ml once a day for consecutive 8 weeks. After completion of the application, a part of the skin was excised from each mouse to take photographs of its surface morphology under scanning electron microscope. […] Evaluation was carried out using the value calculated by dividing the degree of order of the dermis collagen fiber bundle measured by the above method after the application by that before the application.

C[C@@H]1C[C@H]2[C@@H]3CCC4=CC(=O)C=C[C@]4(C)[C@@]3(F)[C@@H](O)C[C@]2(C)[C@@]1(O)C(=O)CO [dexamethasone]
average of the scores of the degree of order of dermis collagen fiber bundle (0.05 ml once a day for consecutive 8 weeks, five mice, score 0 to 3, 2,500 magnification, before application 0.82): 1.71 | degree of amelioration of skin conditions (average score of treated group / average score of ethanol-applied group) (8 weeks, 1.71/0.78): 2.28 | degree of amelioration of skin conditions (score after application / score before application) (8 weeks, 1.71/0.82): 2.09
